Laboratory results taken from patent US11415579B2, “Assay for measuring a rate of reaction between a target and a ligand candidate” (Imperial College Innovations Ltd., priority 2016, dated 2022).

Experiments:
Cdk2[C177A, F80C, K278C] = molecular target: T1, Cdk2[C177A, F80C, K278C] (Homo sapiens, UniProt P24941, C177A/F80C/K278C); assay: Kinetic thiol consumption assay with mutant Cdk2 as model thiol; type: binding; design: unit not given here; details: 500 μM ligand, 5 μM thiol, phosphate buffer pH 8
T1 construct: poly-histidine; made in house; host or cells: E. coli
Summary of the method: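 Model thiol: His-tagged human Cdk2 C177A/F80C/K278C (two engineered surface cysteines), E. coli-expressed, 5 μM in degassed phosphate buffer pH 8 with immobilized TCEP beads (2% v/v). Fluorescence (ex/em 380/470 nm) followed over time at room temperature, normalized to DMSO/thiol control. First-order decay fit gives rate constants.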

Cdk2(S181C) (C177A) = molecular target: T2, Cdk2(S181C) (C177A) (Homo sapiens, UniProt P24941, C177A/S181C); assay: Kinetic thiol consumption assay with Cdk2 mutant S181C; type: binding; design: key to Rate enhancement, Cdk2 S181C: rate constant with Cdk2 ÷ rate constant with model thiol (fold); details: additional mutation C177A; for Rate constant with Cdk2 S181C: Protein: Cdk2, cysteine position S181C, in h^-1
T2 construct: poly-histidine; made in house; host or cells: E. coli
Summary of the method: (§1)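 His-tagged single-surface-cysteine Cdk2 mutants (C177A background) from E. coli, 5 μM in degassed phosphate buffer pH 8, pre-treated with immobilized TCEP beads. Fluorescence (ex/em 380/470 nm) read after 1 h at room temperature, normalized to DMSO/thiol-only control; first-order decay fits gave rate constants, divided by model-thiol rate for rate enhancement.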

Cdk2(H71C) (C177A) = molecular target: T3, Cdk2(H71C) (C177A) (Homo sapiens, UniProt P24941, C177A/H71C); assay: Kinetic thiol consumption assay with Cdk2 mutant H71C; type: binding; design: key to Rate enhancement, Cdk2 H71C: rate constant with Cdk2 ÷ rate constant with model thiol (fold); details: additional mutation C177A; for Rate constant with Cdk2 H71C: Protein: Cdk2, cysteine position H71C, in h^-1
T3 construct: poly-histidine; made in house; host or cells: E. coli
Summary of the method: as §1

Cdk2(S276C) (C177A) = molecular target: T4, Cdk2(S276C) (C177A) (Homo sapiens, UniProt P24941, C177A/S276C); assay: Kinetic thiol consumption assay with Cdk2 mutant S276C; type: binding; design: key to Rate enhancement, Cdk2 S276C: rate constant with Cdk2 ÷ rate constant with model thiol (fold); details: additional mutation C177A; for Rate constant with Cdk2 S276C: Protein: Cdk2, cysteine position S276C, in h^-1
T4 construct: poly-histidine; made in house; host or cells: E. coli
Summary of the method: as §1

Cdk2(N272C) (C177A) = molecular target: T5, Cdk2(N272C) (C177A) (Homo sapiens, UniProt P24941, C177A/N272C); assay: Kinetic thiol consumption assay with Cdk2 mutant N272C; type: binding; design: key to Rate enhancement, Cdk2 N272: rate constant with Cdk2 ÷ rate constant with model thiol (fold); details: for Rate enhancement, Cdk2 N272: Cdk2 N272, additional mutation C177A; for Rate constant with Cdk2 N272C: Protein: Cdk2, cysteine position N272C, additional mutation C177A, in h^-1
T5 construct: poly-histidine; made in house; host or cells: E. coli
Summary of the method: as §1

[1] = Kinetic thiol consumption assay with model thiol glutathione; type: physicochemical; design: Rate constant with glutathione (k(GSH)): unit not given here; details: for Rate constant with glutathione (k(GSH)): 500 μM ligand, 5 μM thiol, phosphate buffer pH 8; for Rate constant with Glutathione: Protein: Glutathione, cysteine position NA, in h-1
Summary of the method: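 First, 5 μM glutathione in degassed phosphate buffer (pH 8) receives immobilized TCEP beads (2% v/v). Then acrylamide is added and plates incubate 1 h at room temperature. Finally, fluorescence (380/470 nm) is normalized and fitted to first-order decay for rate constants.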

[2] = molecular target: T6, human cyclin-dependent kinase 2 (Cdk2) (Homo sapiens, UniProt P24941); assay: Kinetic thiol consumption assay with wild type Cdk2 (C177); type: binding; design: key to Rate enhancement, Cdk2 WT: k(Cdk2) divided by k(model thiol); Rate constant with Cdk2 (k(Cdk2)): unit not given here; details: for Rate constant with Cdk2 (k(Cdk2)): 500 μM ligand, 5 μM thiol, phosphate buffer pH 8; for Rate enhancement, Cdk2 WT: no additional mutations; for Rate constant with Cdk2 WT: Protein: Cdk2, cysteine position WT, in h^-1; for k(Cdk2)/k(Cdk2_mut) rate enhancement: model thiol Cdk2[C177A, F80C, K278C]; for k(Cdk2)/k(GSH) rate enhancement: model thiol glutathione
T6 construct: poly-histidine; made in house; host or cells: E. coli
Summary of the method: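 His-tagged human Cdk2 from E. coli (sole surface cysteine C177) or a model thiol, each 5 μM in degassed phosphate buffer pH 8 with immobilized TCEP, reacted with acrylamides at room temperature. Fluorescence (ex 380/em 470) normalized to DMSO/thiol control over time; first-order rate constants, Cdk2 rate divided by model-thiol rate.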

Cdk2(R122C) (C177A) = molecular target: T7, Cdk2(R122C) (C177A) (Homo sapiens, UniProt P24941, C177A/R122C); assay: Kinetic thiol consumption assay with Cdk2 mutant R122C; type: binding; design: key to Rate enhancement, Cdk2 R122C: rate constant with Cdk2 ÷ rate constant with model thiol (fold); details: additional mutation C177A; for Rate constant with Cdk2 R122C: Protein: Cdk2, cysteine position R122C, in h-1
T7 construct: poly-histidine; made in house; host or cells: E. coli
Summary of the method: as §1

Cdk2(C177A, F80C) = molecular target: T8, Cdk2(C177A, F80C) (Homo sapiens, UniProt P24941, C177A/F80C); assay: Kinetic thiol consumption assay with Cdk2 mutant F80C, incl. kobs versus concentration (Kd, k2); type: binding; design: key to Rate enhancement, Cdk2 F80C: Cdk2 rate constant divided by model-thiol rate constant; details: additional mutation C177A; for Rate constant with Cdk2 F80C: Protein: Cdk2, cysteine position F80C, in h^-1
T8 construct: poly-histidine; made in house; host or cells: E. coli
Summary of the method: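 His-tagged Cdk2(C177A/F80C) from E. coli or model thiol, 5 μM in degassed phosphate buffer pH 8 with TCEP beads, reacted with acrylamide ligands; fluorescence (ex/em 380/470 nm) normalized to DMSO control and fitted to first-order decay for kobs. Kd and k2 obtained from hyperbolic fit of kobs versus ligand concentration.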

Cdk2(T182C) (C177A) = molecular target: T9, Cdk2(T182C) (C177A) (Homo sapiens, UniProt P24941, C177A/T182C); assay: Kinetic thiol consumption assay with Cdk2 mutant T182C; type: binding; design: key to Rate enhancement, Cdk2 T182C: rate constant with Cdk2 ÷ rate constant with model thiol (fold); details: additional mutation C177A; for Rate constant with Cdk2 T182C: Protein: Cdk2, cysteine position T182C, in h^-1
T9 construct: poly-histidine; made in house; host or cells: E. coli
Summary of the method: as §1

Structure (SMILES)	Rate constant with Cdk2[C177A, F80C, K278C] (k(Cdk2_mut)) (Cdk2[C177A, F80C, K278C])	Rate enhancement, Cdk2 S181C (Cdk2(S181C) (C177A))	Rate constant with Cdk2 S181C (Cdk2(S181C) (C177A))	Rate enhancement, Cdk2 H71C (Cdk2(H71C) (C177A))	Rate enhancement, Cdk2 S276C (Cdk2(S276C) (C177A))	Rate constant with Cdk2 S276C (Cdk2(S276C) (C177A))	Rate enhancement, Cdk2 N272 (Cdk2(N272C) (C177A))	Rate constant with Cdk2 N272C (Cdk2(N272C) (C177A))	Rate constant with glutathione (k(GSH)) [1]	Rate constant with Glutathione [1]	Rate constant with Cdk2 (k(Cdk2)) [2]	Rate enhancement, Cdk2 WT [2]	Rate constant with Cdk2 WT [2]	k(Cdk2)/k(Cdk2_mut) rate enhancement [2]	k(Cdk2)/k(GSH) rate enhancement [2]	Rate enhancement, Cdk2 R122C (Cdk2(R122C) (C177A))	Rate constant with Cdk2 R122C (Cdk2(R122C) (C177A))	Rate enhancement, Cdk2 F80C (Cdk2(C177A, F80C))	Rate enhancement, Cdk2 T182C (Cdk2(T182C) (C177A))	Rate constant with Cdk2 T182C (Cdk2(T182C) (C177A))	also measured
C=CC(=O)NC1CC(NC(=O)C2CCC2)C1 (stereo not shown) [CA-202]	0.00132	1.095	0.008545	0	0.3503	0.002734	0.6405	0.004999	0.00506	0.007805	0.00543	1.211	0.009448	4.114	1.074	0.2272	0.001773	0.2601	2.301	0.01796	Rate constant with Cdk2 F80C (Cdk2(C177A, F80C)): 0.00203
C=CC(=O)Nc1sc2c(c1C(=O)NC1CC1)CCC2 [CA-155]	1.391	0.7715	0.2049	1.102	0.6924	0.1839	0.715	0.1899	0.2678	0.2656	0.743	2.797	0.743	0.5342	2.774	1.407	0.3736	0	2.615	0.6945	Rate constant with Cdk2 H71C (Cdk2(H71C) (C177A)): 0.2926
C=CC(=O)NCCc1c(-c2ccccn2)[nH]c2ccccc12 [EL-1083]	0.00284	0.1531	0.001672	0	0.5044	0.005508	0.157	0.001714	0.00618	0.01092	0.00098	0.08945	0.0009768	0.3446	0.1583	0.05484	0.0005988	0	0.9139	0.00998	–
C=CC(=O)N1CC2CN(Cc3ccccc3)CC2C1 (stereo not shown) [CA-207]	0.00111	0.2075	0.003519	0	0.1692	0.00287	0.3358	0.005695	0.00972	0.01696	0.00578	0.3633	0.006162	5.219	0.5947	0.3602	0.006109	0.1388	0.921	0.01562	Rate constant with Cdk2 F80C (Cdk2(C177A, F80C)): 0.002354
C=CC(=O)N1CCN(c2cc(N3CCOCC3)ncn2)CC1 [CA-179]	0.00719	2.608	0.01774	1.062	1.169	0.007953	0.4	0.002721	0.00683	0.006802	0.0076	1.117	0.007599	1.056	1.112	0.6453	0.004389	0.3927	7.042	0.0479	Rate constant with Cdk2 H71C (Cdk2(H71C) (C177A)): 0.007227; Rate constant with Cdk2 F80C (Cdk2(C177A, F80C)): 0.002671
C=CC(=O)N1CCCC(C(=O)OCC)C1 (stereo not shown) [EL-1187]	0.00336	0.2887	0.003834	0.4465	0.4007	0.005321	0.5301	0.00704	0.00634	0.01328	0.00596	0.6935	0.00921	1.774	0.9394	0.1436	0.001907	0.4424	4.397	0.05839	Rate constant with Cdk2 H71C (Cdk2(H71C) (C177A)): 0.005929; Rate constant with Cdk2 F80C (Cdk2(C177A, F80C)): 0.005875
